The source of these data is patent US9266904B2, “6-bridged heteroaryldihydropyrimidines for the treatment and prophylaxis of hepatitis B virus infection” (priority 2013, dated 2016).

Read-outs that look alike come from different tables or passages of the source.

For orientation: EC50 means the concentration needed to bring the measured effect to its halfway point.

Data set [1] concerns HBV replication in HepG2.2.15 cells. Kind of data set: Anti-HBV activity in vitro in HepG2.2.15 cells (extracellular HBV DNA by qPCR). Type of data set: cell-based. Particulars: read-out: EC50. An excerpt:
HepG2.2.15 and HepDE19 are stably-transfected cell lines containing the HBV genome. Both cell lines are derived from the hepatoblastoma cell line Hep G2 (American Type Culture Collection, ATCC® HB-8065™) by the published procedures described in references: M A Selles et al. Proc. Natl. Acad. Sci. USA 1987, 84, 1005-1009 and H Guo et al. Journal of Virology 2007, 81, 12472-12484, respectively. Both cell lines were maintained in Dulbecco's modified Eagle's medium (DMEM)-F12 medium supplemented with 10% fetal bovine serum, 100 U/mL penicillin, 100 μg/mL streptomycin, and 0.5 mg/mL of G418.
While HepG2.2.15 cells constitutively support HBV replication and production of virus particles, HepDE19 cells are inducible by tetracycline. Addition of 1 μg/mL tetracycline in culture medium suppresses HBV replication in HepDE19 cells, whereas switching to tetracycline-free medium resumes this process.
HepG2.2.15 cells were seeded into 96-well plates (3×10^4 cells in 100 μL media per well) and incubated overnight at 37° C. The test compounds were serially half-log diluted in DMSO, then diluted 100 times in culture media. 100 μL diluted compounds were added into the plates to reach 0.5% final concentration of DMSO in every well. Five days after compound treatment, culture supernatant was collected for further analysis.
For quantitative PCR detection of extracellular HBV DNA, 100 μL culture supernatant was collected and processed in MagNA Pure 96 Nucleic Acid Purification System (Roche Applied Science) for viral DNA extraction. The extracted samples were subjected to HBV DNA quantification by qPCR. The effective compound concentration at which HBV replication is inhibited by 50% (EC50) was determined.
The Examples were tested in the above assays as described herein and found to have EC50<1 μM in HepG2.2.15 assay.

Data set [2] can be described thus: Human microsomal clearance assay. Type of data set: in vitro ADME. Here is the method:
Microsomes were preincubated with test compound for 10 minutes at 37° C. in 100 mM phosphate buffer with pH 7.4. The reactions were initiated by adding NADPH regenerating system to give a final incubation volume of 400 μL. The incubations finally contained 1 μM test compound, 0.5 mg/mL liver microsomal protein, 3.0 mM glucose 6-phosphate, 1.0 mM NADP, 3.0 mM MgCl2 and 0.05 mg/mL glucose 6-phosphate dehydrogenase in 100 mM phosphate buffer with pH 7.4. After incubation times of 0, 3, 6, 9, 15 and 30 minutes, 50 μL, incubation was transferred to the quench solution containing the internal standard which was 2 μM tolbutamide. After precipitation and centrifugation, test compound concentrations in the samples were determined by LC-MS/MS. Controls of no NADPH regenerating system at zero and 30 minutes were also prepared and analyzed.

Where [3] appears, read: Anti-HBV activity in HepG2.2.15 cells.
Where [4] appears, read: Hepatitis B virus, HepG2.2.15, Anti-HBV activity in HepG2.2.15 cells.

In the case of “2-[(1R,5R,7S)-9-[[(4S)-4-(3,4-difluoro-2-methyl-phenyl)-5-methoxycarbonyl-2-thiazol-2-yl-1,4-dihydropyrimidin-6-yl]methyl]-6,6-difluoro-3-oxa-9-azabicyclo[3.3.1]nonan-7-yl]acetic acid or 2-[(1S,5S,7R)-9-[[(4S)-4-(3,4-difluoro-2-methyl-phenyl)-5-methoxycarbonyl-2-thiazol-2-yl-1,4-dihydropyrimidin-6-yl]methyl]-6,6-difluoro-3-oxa-9-azabicyclo[3.3.1]nonan-7-yl]acetic acid [Example 132]”, in data set [1] (setting [3]), the EC50 came to 0.0103 µM. Further, the CLh in data set [2] (human microsomal clearance) is 2.6 mL/min/kg. For the molecule `COC(=O)C1=C(CN2C3CC(F)(F)C2C[C@](O)(CC(=O)O)C3)NC(c2nccs2)=N[C@H]1c1ccc(F)cc1Cl` (single isomer, unassigned) [Example 117], the EC50 in data set [1] (setting [4]) amounted to 0.0402 µM. This molecule also registered a CLh in data set [2] (human, 1 μM, pH 7.4) of 1.8 mL/min/kg.

Turning to `COC(=O)C1=C(CN2C3COCC2CC(OC(C)=O)C3)NC(c2nccs2)=N[C@H]1c1ccc(F)cc1Cl` (stereo partly drawn) [Example 8, (R)-6-(7-Acetoxy-3-oxa-9-aza-bicyclo[3.3.1]non-9-ylmethyl)-4-(2-chloro-4-fluoro-phenyl)-2-thiazol-2-yl-1,4-dihydro-pyrimidine-5-carboxylic acid methyl ester], the CLh in data set [2] (human, 1 μM, pH 7.4) is 0 mL/min/kg. Turning to `COC(=O)C1=C(CN2C3COCC2CN(C(N)=O)C3)NC(c2nccs2)=N[C@H]1c1ccc(F)cc1Cl` [Example 18, (R)-6-(7-Carbamoyl-3-oxa-7,9-diaza-bicyclo[3.3.1]non-9-ylmethyl)-4-(2-chloro-4-fluoro-phenyl)-2-thiazol-2-yl-1,4-dihydro-pyrimidine-5-carboxylic acid methyl ester], in data set [1] (setting [4]), the EC50 is 0.02 µM. Also, the CLh in data set [2] (human, 1 μM, pH 7.4) turned out to be 1.3 mL/min/kg. For `COC(=O)C1=C(CN2C3COCC2CN(C(=O)CO)C3)NC(c2nccs2)=N[C@H]1c1ccc(F)cc1Cl` [Example 21, (R)-4-(2-Chloro-4-fluoro-phenyl)-6-[7-(2-hydroxy-acetyl)-3-oxa-7,9-diaza-bicyclo[3.3.1]non-9-ylmethyl]-2-thiazol-2-yl-1,4-dihydro-pyrimidine-5-carboxylic acid methyl ester], in that order: 0.02 µM and 4.3 mL/min/kg. For `COC(=O)C1=C(CN2[C@@H]3COC[C@H]2C[C@@H](NC(N)=O)C3)NC(c2nccs2)=N[C@H]1c1ccc(F)cc1Cl` [Example 57, Methyl (4R)-4-(2-chloro-4-fluoro-phenyl)-2-thiazol-2-yl-6-[[(1S,5R)-7-endo-ureido-3-oxa-9-azabicyclo[3.3.1]nonan-9-yl]methyl]-1,4-dihydropyrimidine-5-carboxylate], in that order: 0.0219 µM and 5.0 mL/min/kg. Regarding `COC(=O)C1=C(CN2[C@H]3C[C@@H](CC(=O)O)C[C@@H]2C(F)(F)C3)NC(c2nccs2)=N[C@H]1c1ccc(F)cc1Cl` [Example 87, 2-[(1S,3R,5R)-8-[[(4R)-4-(2-chloro-4-fluoro-phenyl)-5-methoxycarbonyl-2-thiazol-2-yl-1,4-dihydropyrimidin-6-yl]methyl]-6,6-difluoro-8-azabicyclo[3.2.1]octan-3-yl]acetic acid], in data set [1] (setting [4]), the EC50 came out at 0.0394 µM. In data set [2] (human, 1 μM, pH 7.4), this molecule came in with a CLh of 0 mL/min/kg. For `COC(=O)C1=C(CN2[C@H]3C[C@@H](CC(=O)O)C[C@@H]2C(F)(F)C3)NC(c2nccs2)=N[C@H]1c1cccc(F)c1Cl` [Example 89, 2-[(1S,3R,5R)-8-[[(4R)-4-(2-chloro-3-fluoro-phenyl)-5-methoxycarbonyl-2-thiazol-2-yl-1,4-dihydropyrimidin-6-yl]methyl]-6,6-difluoro-8-azabicyclo[3.2.1]octan-3-yl]acetic acid], in that order: 0.0305 µM and 0 mL/min/kg. On to `COC(=O)C1=C(CN2[C@H]3C[C@@H](CC(=O)O)C[C@@H]2C(F)(F)C3)NC(c2nccs2)=N[C@H]1c1ccccc1Cl` [Example 91, 2-[(1S,3R,5R)-8-[[(4R)-4-(2-chlorophenyl)-5-methoxycarbonyl-2-thiazol-2-yl-1,4-dihydropyrimidin-6-yl]methyl]-6,6-difluoro-8-azabicyclo[3.2.1]octan-3-yl]acetic acid], for which the EC50 in data set [1] (setting [4]) was determined as 0.0907 µM. The molecule further returned a CLh in data set [2] (human, 1 μM, pH 7.4) of 5.1 mL/min/kg.

In the case of `CCOC(=O)C1=C(CN2[C@@H]3C[C@H](CC(=O)O)C[C@H]2C(F)(F)C3)NC(c2nccs2)=N[C@H]1c1ccccc1Br` [Example 92, 2-[(1R,3S,5S)-8-[[(4R)-4-(2-bromophenyl)-5-ethoxycarbonyl-2-thiazol-2-yl-1,4-dihydropyrimidin-6-yl]methyl]-6,6-difluoro-8-azabicyclo[3.2.1]octan-3-yl]acetic acid], the EC50 in data set [1] (setting [4]) amounted to 0.0015 µM. This molecule displayed a CLh in data set [2] (human, 1 μM, pH 7.4) of 1.7 mL/min/kg. As to `CCOC(=O)C1=C(CN2[C@H]3C[C@@H](CC(=O)O)C[C@@H]2C(F)(F)C3)NC(c2nccs2)=N[C@H]1c1ccccc1Br` [Example 93, 2-[(1S,3R,5R)-8-[[(4R)-4-(2-bromophenyl)-5-ethoxycarbonyl-2-thiazol-2-yl-1,4-dihydropyrimidin-6-yl]methyl]-6,6-difluoro-8-azabicyclo[3.2.1]octan-3-yl]acetic acid], the EC50 in data set [1] (setting [4]) was determined as 0.0289 µM. In data set [2] (human, 1 μM, pH 7.4), the CLh is 0.2 mL/min/kg. Regarding `COC(=O)C1=C(CN2[C@@H]3C[C@H](CC(=O)O)C[C@H]2C(F)(F)C3)NC(c2nccs2)=N[C@H]1c1cccc(F)c1Br` [Example 94, 2-[(1R,3S,5S)-8-[[(4R)-4-(2-bromo-3-fluoro-phenyl)-5-methoxycarbonyl-2-thiazol-2-yl-1,4-dihydropyrimidin-6-yl]methyl]-6,6-difluoro-8-azabicyclo[3.2.1]octan-3-yl]acetic acid], in data set [1] (setting [4]), the EC50 worked out at 0.0217 µM. In data set [2] (human, 1 μM, pH 7.4), this molecule displayed a CLh of 0 mL/min/kg. In the same order, the values of `COC(=O)C1=C(CN2[C@H]3C[C@@H](CC(=O)O)C[C@@H]2C(F)(F)C3)NC(c2nccs2)=N[C@H]1c1cccc(F)c1Br` [Example 95, 2-[(1S,3R,5R)-8-[[(4R)-4-(2-bromo-3-fluoro-phenyl)-5-methoxycarbonyl-2-thiazol-2-yl-1,4-dihydropyrimidin-6-yl]methyl]-6,6-difluoro-8-azabicyclo[3.2.1]octan-3-yl]acetic acid] are 0.0311 µM and 0 mL/min/kg.

For `COC(=O)C1=C(CN2[C@@H]3C[C@H](CC(=O)O)C[C@H]2C(F)(F)C3)NC(c2nccs2)=N[C@H]1c1ccc(Cl)c(F)c1` [Example 96, 2-[(1R,3S,5S)-8-[[(4S)-4-(4-chloro-3-fluoro-phenyl)-5-methoxycarbonyl-2-thiazol-2-yl-1,4-dihydropyrimidin-6-yl]methyl]-6,6-difluoro-8-azabicyclo[3.2.1]octan-3-yl]acetic acid], in data set [1] (setting [4]), the EC50 was found to be 0.0068 µM. In addition, the CLh in data set [2] (human, 1 μM, pH 7.4) stood at 1.8 mL/min/kg.

In the case of `COC(=O)C1=C(CN2[C@H]3C[C@@H](CC(=O)O)C[C@@H]2C(F)(F)C3)NC(c2nccs2)=N[C@H]1c1ccc(Cl)c(F)c1` [Example 97, 2-[(1S,3R,5R)-8-[[(48)-4-(4-chloro-3-fluoro-phenyl)-5-methoxycarbonyl-2-thiazol-2-yl-1,4-dihydropyrimidin-6-yl]methyl]-6,6-difluoro-8-azabicyclo[3.2.1]octan-3-yl]acetic acid], the EC50 in data set [1] (setting [3]) is 0.156 µM. Also, the CLh in data set [2] (human microsomal clearance) stood at 0 mL/min/kg.

Turning to `CCOC(=O)C1=C(CN2[C@@H]3C[C@H](CC(=O)O)C[C@H]2C(F)(F)C3)NC(c2nccs2)=N[C@H]1c1cccc(F)c1Cl` [Example 98, 2-[(1R,3S,5S)-8-[[(4R)-4-(2-chloro-3-fluoro-phenyl)-5-ethoxycarbonyl-2-thiazol-2-yl-1,4-dihydropyrimidin-6-yl]methyl]-6,6-difluoro-8-azabicyclo[3.2.1]octan-3-yl]acetic acid], the EC50 in data set [1] (setting [4]) was determined as 0.0007 µM. For the same molecule, in data set [2] (human, 1 μM, pH 7.4), the CLh was 4.5 mL/min/kg. As to `COC(=O)C1=C(CN2C3CC(F)(F)C2C[C@@H]3C(=O)O)NC(c2nccs2)=N[C@H]1c1ccc(F)cc1Cl` (stereo partly drawn) [Example 151, (5S)-7-[[(4R)-4-(2-chloro-4-fluoro-phenyl)-5-methoxycarbonyl-2-thiazol-2-yl-1,4-dihydropyrimidin-6-yl]methyl]-2,2-difluoro-7-azabicyclo[2.2.1]heptane-5-carboxylic acid], the EC50 in data set [1] (setting [4]) was 0.0295 µM.
